{"source": "patent US20100285959A1", "about": "“HERBICIDAL MIXTURES” (priority 2006, published 2010)", "assay_in_all_cases": "Test 7 field trial, preemergence", "key": {"corn (ZEAMD)": {"system": "corn (ZEAMD)", "format": "in vivo, Zea mays ssp. indentata", "settings": "hybrid Pioneer 36B10, corn (Zea mays ssp. indentata), in vivo, 62 days after application", "protocol": "(§1) Plots were 7.6 m long by 3.0 m wide with rows spaced 76 cm apart. Seeds were spaced 15 cm apart within the rows. The field was managed using conventional tillage practices. […] Wild radish was evaluated 14 and 28 days after application. […] Results are the means of the three replicates."}, "redroot pigweed (AMARE)": {"system": "redroot pigweed (AMARE)", "format": "in vivo, Amaranthus retroflexus", "protocol": "as §1"}, "jimsonweed (DATST)": {"system": "jimsonweed (DATST)", "format": "in vivo, Datura stramonium", "protocol": "as §1"}, "annual grasses (GGGAN)": {"system": "annual grasses (GGGAN)", "format": "in vivo, Gramineae", "protocol": "as §1"}, "morningglory (IPOSS)": {"system": "morningglory (IPOSS)", "format": "in vivo, Ipomoea L. spp.", "protocol": "as §1"}, "[1]": {"system": "Pennsylvania smartweed (POLPY)", "format": "in vivo, Polygonum pensylvanicum", "protocol": "as §1"}, "wild radish (RAPRA)": {"system": "wild radish (RAPRA)", "format": "in vivo, Raphanus raphanistrum", "protocol": "as §1"}}}
{"compound": "CCOC(=O)c1nc(C2CC2)nc(N)c1Br", "note": "[Compound 6, ethyl 6-amino-5-bromo-2-cyclopropyl-4-pyrimidinecarboxylate]", "values": [{"measurement": "ZEAMD Obs", "setting": "corn (ZEAMD)", "result": 0, "unit": "%"}, {"measurement": "AMARE Obs", "setting": "redroot pigweed (AMARE); 14 DAA, 125 g a.i./ha", "result": 87, "unit": "%"}, {"measurement": "AMARE Obs", "setting": "redroot pigweed (AMARE); 14 DAA, 250 g a.i./ha", "result": 98, "unit": "%"}, {"measurement": "AMARE Obs", "setting": "redroot pigweed (AMARE); 14 DAA, 500 g a.i./ha", "result": 98, "unit": "%"}, {"measurement": "AMARE Obs", "setting": "redroot pigweed (AMARE); 28 DAA, 125 g a.i./ha", "result": 82, "unit": "%"}, {"measurement": "AMARE Obs", "setting": "redroot pigweed (AMARE); 28 DAA, 250 g a.i./ha", "result": 97, "unit": "%"}, {"measurement": "AMARE Obs", "setting": "redroot pigweed (AMARE); 28 DAA, 500 g a.i./ha", "result": 98, "unit": "%"}, {"measurement": "AMARE Obs", "setting": "redroot pigweed (AMARE); 62 DAA, 125 g a.i./ha", "result": 80, "unit": "%"}, {"measurement": "AMARE Obs", "setting": "redroot pigweed (AMARE); 62 DAA, 250 g a.i./ha", "result": 70, "unit": "%"}, {"measurement": "AMARE Obs", "setting": "redroot pigweed (AMARE); 62 DAA, 500 g a.i./ha", "result": 100, "unit": "%"}, {"measurement": "DATST Obs", "setting": "jimsonweed (DATST); 14 DAA, 125 g a.i./ha", "result": 87, "unit": "%"}, {"measurement": "DATST Obs", "setting": "jimsonweed (DATST); 14 DAA, 250 g a.i./ha", "result": 100, "unit": "%"}, {"measurement": "DATST Obs", "setting": "jimsonweed (DATST); 14 DAA, 500 g a.i./ha", "result": 95, "unit": "%"}, {"measurement": "DATST Obs", "setting": "jimsonweed (DATST); 28 DAA, 125 g a.i./ha", "result": 90, "unit": "%"}, {"measurement": "DATST Obs", "setting": "jimsonweed (DATST); 28 DAA, 250 g a.i./ha", "result": 100, "unit": "%"}, {"measurement": "DATST Obs", "setting": "jimsonweed (DATST); 28 DAA, 500 g a.i./ha", "result": 100, "unit": "%"}, {"measurement": "DATST Obs", "setting": "jimsonweed (DATST); 62 DAA, 125 g a.i./ha", "result": 75, "unit": "%"}, {"measurement": "DATST Obs", "setting": "jimsonweed (DATST); 62 DAA, 250 g a.i./ha", "result": 100, "unit": "%"}, {"measurement": "DATST Obs", "setting": "jimsonweed (DATST); 62 DAA, 500 g a.i./ha", "result": 90, "unit": "%"}, {"measurement": "GGGAN Obs", "setting": "annual grasses (GGGAN); 14 DAA, 125 g a.i./ha", "result": 7, "unit": "%"}, {"measurement": "GGGAN Obs", "setting": "annual grasses (GGGAN); 14 DAA, 250 g a.i./ha", "result": 53, "unit": "%"}, {"measurement": "GGGAN Obs", "setting": "annual grasses (GGGAN); 14 DAA, 500 g a.i./ha", "result": 63, "unit": "%"}, {"measurement": "GGGAN Obs", "setting": "annual grasses (GGGAN); 28 DAA, 125 g a.i./ha", "result": 2, "unit": "%"}, {"measurement": "GGGAN Obs", "setting": "annual grasses (GGGAN); 28 DAA, 250 g a.i./ha", "result": 35, "unit": "%"}, {"measurement": "GGGAN Obs", "setting": "annual grasses (GGGAN); 28 DAA, 500 g a.i./ha", "result": 52, "unit": "%"}, {"measurement": "GGGAN Obs", "setting": "annual grasses (GGGAN); 62 DAA, 125 g a.i./ha", "result": 90, "unit": "%"}, {"measurement": "GGGAN Obs", "setting": "annual grasses (GGGAN); 62 DAA, 250 g a.i./ha", "result": 0, "unit": "%"}, {"measurement": "GGGAN Obs", "setting": "annual grasses (GGGAN); 62 DAA, 500 g a.i./ha", "result": 0, "unit": "%"}, {"measurement": "IPOSS Obs", "setting": "morningglory (IPOSS); 14 DAA, 125 g a.i./ha", "result": 93, "unit": "%"}, {"measurement": "IPOSS Obs", "setting": "morningglory (IPOSS); 14 DAA, 250 g a.i./ha", "result": 100, "unit": "%"}, {"measurement": "IPOSS Obs", "setting": "morningglory (IPOSS); 14 DAA, 500 g a.i./ha", "result": 100, "unit": "%"}, {"measurement": "IPOSS Obs", "setting": "morningglory (IPOSS); 28 DAA, 125 g a.i./ha", "result": 93, "unit": "%"}, {"measurement": "IPOSS Obs", "setting": "morningglory (IPOSS); 28 DAA, 250 g a.i./ha", "result": 100, "unit": "%"}, {"measurement": "IPOSS Obs", "setting": "morningglory (IPOSS); 28 DAA, 500 g a.i./ha", "result": 100, "unit": "%"}, {"measurement": "IPOSS Obs", "setting": "morningglory (IPOSS); 62 DAA, 125 g a.i./ha", "result": 100, "unit": "%"}, {"measurement": "IPOSS Obs", "setting": "morningglory (IPOSS); 62 DAA, 250 g a.i./ha", "result": 100, "unit": "%"}, {"measurement": "IPOSS Obs", "setting": "morningglory (IPOSS); 62 DAA, 500 g a.i./ha", "result": 100, "unit": "%"}, {"measurement": "POLPY Obs", "setting": "[1]; 14 DAA, 125 g a.i./ha", "result": 40, "unit": "%"}, {"measurement": "POLPY Obs", "setting": "[1]; 14 DAA, 250 g a.i./ha", "result": 83, "unit": "%"}, {"measurement": "POLPY Obs", "setting": "[1]; 14 DAA, 500 g a.i./ha", "result": 93, "unit": "%"}, {"measurement": "POLPY Obs", "setting": "[1]; 28 DAA, 125 g a.i./ha", "result": 45, "unit": "%"}, {"measurement": "POLPY Obs", "setting": "[1]; 28 DAA, 250 g a.i./ha", "result": 80, "unit": "%"}, {"measurement": "POLPY Obs", "setting": "[1]; 28 DAA, 500 g a.i./ha", "result": 88, "unit": "%"}, {"measurement": "POLPY Obs", "setting": "[1]; 62 DAA, 125 g a.i./ha", "result": 75, "unit": "%"}, {"measurement": "POLPY Obs", "setting": "[1]; 62 DAA, 250 g a.i./ha", "result": 55, "unit": "%"}, {"measurement": "POLPY Obs", "setting": "[1]; 62 DAA, 500 g a.i./ha", "result": 100, "unit": "%"}, {"measurement": "RAPRA Obs", "setting": "wild radish (RAPRA); 14 DAA, 125 g a.i./ha", "result": 25, "unit": "%"}, {"measurement": "RAPRA Obs", "setting": "wild radish (RAPRA); 14 DAA, 250 g a.i./ha", "result": 40, "unit": "%"}, {"measurement": "RAPRA Obs", "setting": "wild radish (RAPRA); 14 DAA, 500 g a.i./ha", "result": 43, "unit": "%"}, {"measurement": "RAPRA Obs", "setting": "wild radish (RAPRA); 28 DAA, 125 g a.i./ha", "result": 35, "unit": "%"}, {"measurement": "RAPRA Obs", "setting": "wild radish (RAPRA); 28 DAA, 250 g a.i./ha", "result": 30, "unit": "%"}, {"measurement": "RAPRA Obs", "setting": "wild radish (RAPRA); 28 DAA, 500 g a.i./ha", "result": 30, "unit": "%"}]}
